According to patent publication US12465630B2, “Small peptide compositions and uses thereof” (University of Pittsburgh—Of the Commonwealth System of …, priority 2018, dated 2025):

Experiments:
[1] = test system: cardiac fibroblasts; test: Motility (scratch) assay, cardiac fibroblasts; type: cell-based, mouse
Description: (§1) Primary cardiac fibroblasts and cardiomyocytes were isolated from both wild-type and CXCR3−/− neonatal mouse pups. After washing in PBS, hearts were stirred for 5 minutes in 0.5% trypsin at 37° C. to dissociate cells into solution. The suspended cells were then transferred to DMEM containing 20% fetal bovine serum (FBS) on ice to inactivate trypsin activity, and dissociation was repeated twice more with fresh trypsin solution. Cells were then washed and plated into 6-well plates at 1.25×10^6 cells/well, suspended in cardiac cell media (DMEM containing 7.5% dialyzed FBS and 1% antibiotic/antimitotic solution). After three hours, adhered fibroblasts were separated from the unattached cardiomyocytes through resuspension of the cells, and cardiomyocytes were plated separately at a density of 5×10^5 cells/ml.
(§2) To determine the effect of IP-10p on TGFβ1-induced cell migration, motility assays were performed on cardiac fibroblasts, cardiomyocytes, and co-cultures (2:1 ratio of cardiomyocytes to fibroblasts). Cells were plated at 2.5×10^5 cells/well in a 12-well uncoated plate in depleted media (DMEM containing 0.5% FBS) 24 hours before beginning the experiment. A pipette tip was used to create a scratch in the monolayer and the plate was washed twice with PBS to remove scraped cells. Cells were then treated with TGFβ1 (R&D Systems, Minneapolis, MN) alone (10 ng/mL) to stimulate fibrosis, CXCL10 alone (10 μM), IP-10p alone (10 μM), TGFβ1+CXCL10, TGFβ1+IP-10p, or left untreated. Images were taken immediately after scratching and 24 hours later, and Adobe Photoshop was used to quantify wound motility as distance between wound edges relative to the initial scratch width.

[2] = test system: cardiomyocytes; test: Motility (scratch) assay, cardiomyocytes; type: cell-based, mouse; settings: TGFβ1 10 ng/mL + agent 10 μM, 24 h, FIG. 1A
Description: as §1, §2

[3] = test system: co-cultures of cardiomyocytes and cardiac fibroblasts; test: Motility (scratch) assay, co-cultures; type: cell-based, mouse; settings: co-culture 2:1 cardiomyocytes to fibroblasts; FIG. 1C; listed as IP-10 Peptide
Description: as §1
To determine the effect of IP-10p on TGFβ1-induced cell migration, motility assays were performed on cardiac fibroblasts, cardiomyocytes, and co-cultures (2:1 ratio of cardiomyocytes to fibroblasts). Cells were plated at 2.5×10^5 cells/well in a 12-well uncoated plate in depleted media (DMEM containing 0.5% FBS) 24 hours before beginning the experiment. […] Images were taken immediately after scratching and 24 hours later, and Adobe Photoshop was used to quantify wound motility as distance between wound edges relative to the initial scratch width.

[4] = test system: cardiac fibroblasts; test: Fibroblast activation assay (αSMA), cardiac fibroblasts; type: cell-based, mouse
Description: as §1
(§3) Fibroblast activation to myofibroblasts is marked by αSMA expression within the cytoskeleton and serves as a marker to induce fibrosis. Cardiac fibroblasts were plated at 2,000 cells/well in an 8-well chamber slide and allowed to adhere overnight. After 24 hours, cells were washed and treated with: TGFβ1 alone (10 ng/ml), CXCL10 alone (10 μM), IP-10p alone (10 μM), TGFβ1+CXCL10, TGFβ1+IP-10p, or left untreated. After 24 hours, cells were fixed in ice cold methanol for 10 minutes and stained for αSMA (1:200, Abcam ab5694, Cambridge, UK) at 4° C. overnight, followed by a goat-anti-rabbit Alexa Fluor 594-conjugated secondary antibody (Abcam ab150080). After counterstaining with DAPI, cells were imaged, and fibroblast activation was measured using corrected total cell fluorescence (CTCF). These measurements were also performed in co-cultures of cardiomyocytes and cardiac fibroblasts (2:1 ratio)

[5] = test system: co-cultures of cardiomyocytes and cardiac fibroblasts; test: Fibrotic extracellular matrix (ECM) secretion, co-cultures; type: cell-based, mouse; settings: 48 h
Description: as §1
Cardiac fibrosis is marked by overproduction of ECM proteins following injury. To observe the effect of IP-10p on secretion of these molecules, co-cultures of cardiomyocytes and cardiac fibroblasts were used to account for […] signaling taking place between the two dominant cell types in the heart. Fibroblasts and myocytes were plated at a 2:1 ratio using the same culture conditions and treatment groups described above for fibroblast activation. Following a 48-hour incubation with their respective treatments, cells were fixed, permeabilized and stained. Antibodies for collagen α1 type 1 (1:250, Santa Cruz Biotechnology SC8784, Dallas, TX), fibronectin (1:250, Abcam ab2413), and tenascin C (1:200, Abcam ab6346), followed by their appropriate secondary antibodies (Abcam ab150132, ab150077, and 150153, respectively), were used to determine fibrotic ECM secretion from the co-cultures. Expression of these molecules is expressed at CTCF and was quantified using MetaMorph® (Molecular Devices, Sunnyvale, CA).

[6] = test system: CXCR3−/− co-cultures of cardiac fibroblasts and cardiomyocytes; test: Myofibroblast differentiation and ECM in CXCR3−/− co-cultures; type: cell-based, mouse; settings: CXCR3−/− cells, TGFβ1
Description: as §1, §3
Cardiac fibrosis is marked by overproduction of ECM proteins following injury. […] Expression of these molecules is expressed at CTCF and was quantified using MetaMorph® (Molecular Devices, Sunnyvale, CA).
In addition to cell motility, myofibroblast differentiation in CXCR3−/− cells in response to IP-10p was assessed. […]

[7] = target: T1, CXCR3 (Homo sapiens, UniProt P49682); settings: cited from earlier work
T1 sequence (P49682 1-415 isoform P49682-2): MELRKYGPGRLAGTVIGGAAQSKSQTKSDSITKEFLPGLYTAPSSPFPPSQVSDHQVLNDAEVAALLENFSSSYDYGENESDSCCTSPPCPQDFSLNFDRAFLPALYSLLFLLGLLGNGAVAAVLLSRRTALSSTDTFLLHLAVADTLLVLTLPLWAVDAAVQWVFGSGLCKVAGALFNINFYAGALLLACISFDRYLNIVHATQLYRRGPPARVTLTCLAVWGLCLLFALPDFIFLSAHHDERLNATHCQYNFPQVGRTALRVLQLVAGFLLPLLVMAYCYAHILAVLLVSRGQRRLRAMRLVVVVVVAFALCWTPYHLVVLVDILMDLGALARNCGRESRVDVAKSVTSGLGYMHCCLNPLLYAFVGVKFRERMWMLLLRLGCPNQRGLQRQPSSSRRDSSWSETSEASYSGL

[8] = agent alone vs unstimulated cultures

Sequence: PESKAIKNLLKAVSKEMSKRSP [IP-10p, 22-amino acid CXCL10 peptide spanning the C-terminal residues (77-98) of IP-10, the alpha-helical region]
- motility of cardiac fibroblasts, agent alone ([1]; 10 μM alone, 24 h, compared to control): not altered
- migration following TGF-β induction in cardiac fibroblasts ([1]; FIG. 1B): inhibit migration
- reduction of motility of TGFβ1-treated fibroblasts ([1]; TGFβ1 10 ng/mL + agent 10 μM, 24 h): over 40%
- cardiomyocyte motility in the presence of TGFβ1 [2]: completely inhibited
- cardiomyocyte motility in the presence of TGFβ1 ([2]; listed as IP-10 Peptide): inhibit migration
- cellular migration in TGF-β induced co-cultures [3]: inhibits cellular migration
- reduction of activation of fibroblasts (αSMA) compared to the untreated control ([4]; IP-10p alone 10 μM, 24 h): 33%
- αSMA expression in the presence of TGFβ1 ([4]; TGFβ1 10 ng/mL + IP-10p 10 μM vs TGFβ1 alone): reduced αSMA expression
- collagen expression in the presence of TGFβ1 ([5]; TGFβ1 10 ng/mL + agent 10 μM): reduced expression of both these proteins to baseline levels
- fibronectin expression in the presence of TGFβ1 ([5]; TGFβ1 10 ng/mL + agent 10 μM): reduced expression of both these proteins to baseline levels
- collagen secretion, agent alone [5, 8]: reduced collagen and fibronectin secretion
- fibronectin secretion, agent alone [5, 8]: reduced collagen and fibronectin secretion
- expression of αSMA in CXCR3−/− co-cultures [6]: inhibiting expression
- upregulation of collagen I in CXCR3−/− co-cultures [6]: inhibited upregulation
- upregulation of fibronectin in CXCR3−/− co-cultures [6]: inhibited upregulation
- activation of the CXCR3B isoform ([7]; PCT Publication Nos. WO 2013/032853 and WO 2015/112505): activates the CXCR3B isoform
- competition for binding and activation of CXCR3 ([7]; compared with whole CXCL10): competes for binding and activation of CXCR3 in an equimolar manner to whole CXCL10
